Data published in patent US12616753B2, “HSP70 inhibitors and methods of using same” (THE WISTAR INSTITUTE, priority 2020, dated 2026).
pIC50: −log10 of the molar value.

Columns and labels:
[1] = Pharmacokinetics in mice; type: in vivo; details: 10 mg/kg
Excerpt: FIGS. 8A-8E show HSP70 inhibition is effective on mouse CRC cell lines. FIG. 8A: Association of HSPA1A gene expression and survival rate of patients with colorectal adenocarcinoma (COAD). Patient data was gathered from USCS Xena platform (GDC-TCGA COAD; n=435). Log-rank test was used to determine significance. p=0.0004. FIG. 8B: Association of HSPA1A gene expression and stage of COAD (n=440). Wilcoxon rank sum test was used to determine significance. * p<0.05, *** p<0.001. FIG. 8C: Body weights of mice injected with HT-29 tumor xenografts. Weights were measured at the start of the treatment to determine mouse toxicity. n.s. not significant, n=10 mice per group. FIG. 8D: H&E staining of livers and colons of mice injected with HT-29 tumor xenografts. Tissues were collected at the end of the study. FIG. 8E. Pharmacokinetic values of AP-4-139B in the liver, plasma, and brain from three CDI mice treated with 10 mg/kg of compound.

[2] = test system: MC38 and HT-29 cells; experiment: Extracellular HMGB1 release; type: cell-based; details: 8 or 24 hours
Method: FIG. 6A: 1×10^6 MC38 cells were injected subcutaneously into the right flank of 6-8-week-old male C57Bl/6 mice. Once tumors reached an approximate volume of 100 mm^3, mice were treated with AP-4-139B (10 mg/kg) every 48 hours. 20 days after the start of treatment, tumors were excised, weighed, minced and digested. Tumor-infiltrating and splenic conventional CD4 (cCD4) (Live CD45^+ DUMP^− CD3^+CD4^+Foxp3^−), Tregs (Live CD45^+ DUMP^− CD3^+CD4^+Foxp3^+), CD8 (Live CD45^+ DUMP^− CD3^+CD8^+) T-cells, and Dendritic Cells (Live CD45^+ DUMP^− CD3^−CD11c^+MHCII^+) numbers were assessed by flow cytometry. * p<0.05, n.s. not significant. n=8 mice per group. FIG. 6B: MC38 and HT-29 cells were treated with the indicated concentrations of AP-4-139B for either 8 or 24 hours; media was collected and subjected to WB for HMGB1. Data shown are representative of three technical replicates. FIG. 6C: MC38 and HT-29 cells were treated with the indicated concentrations of AP-4-139B for three hours and then assayed for extracellular ATP release. […]
The XF Cell Mito Stress Test was performed. […] For extracellular ATP release, ATP was measured using the CellTiter-Glo Kit (Promega catalog #G7570). […] 10 μl of CellTiter-Glo Reaction Mix was then mixed with 10 μl of culture media; the luminescence signal was detected using a luminometer.

[3] = test system: CRC cell lines (SW620, HT-29, HCT 116+/−p53, RKO, and LS411N); experiment: Alamar Blue cell viability assay, human CRC panel; type: cell-based; details: Homo sapiens; 72 hours; read-out: IC50, cytotoxicity in all CRC cell lines
Method: FIGS. 4A-4F show AP-4-139B is efficacious as a single agent against human CRC in vitro and in vivo. FIG. 4A: Three CRC cell lines (HT-29, LS411N, and SW620) were treated with 10 μM of PET-16 or AP-4-139B for 48 hours. Cell were then subjected to viability assays using Trypan Blue exclusion. *** p<0.001. […] FIGS. 4B-4C: A panel of six CRC cell lines (SW620, HT-29, HCT 116+/−p53, RKO, and LS411N) were plated at a density of 1,000 cells per well in 96-well plates. The next day, cells were treated with the indicated inhibitors for 72 hours. Cells were then subjected to the Alamar Blue cell viability assays. Shown are representative IC50 values of an average of six technical replicates and two biological replicates. FIG. 4D: 2.5×10^6 HT-29 cells were injected subcutaneously into the right flank of NSG mice. Once tumors reached an approximate volume of 100 mm^3, mice were separated randomly into two groups: control vs. AP-4-139B. Mice were treated with 12.5 mg/kg AP-4-139B three times a week. All mice were euthanized 22 days after the start of treatment. Tumor volumes were recorded using digital calipers and using the formula v=length×width^2×0.52. *** p<0.001. n=10 mice per group. FIG. 4E: Immunohistochemistry (IHC) analysis of HT-29 xenograft tumors treated with AP-4-139B. Shown are representative images (4-6 random fields of view per condition) of Ki67 (proliferation) and Cleaved Lamin A (cell death). n=4 mice per group. Scale bar=100 μm. Respective IgG antibody was used as the negative control.

Question: With c1ccc(-c2cn3nc(CCCCCC[P+](c4ccccc4)(c4ccccc4)c4ccccc4)sc3n2)cc1 [AP-4-139B, Triphenyl(6-(6-phenylimidazo[2,1-b][1,3,4]thiadiazol-2-yl)hexyl)phosphonium bromide] as the compound, how does the brain penetrance [1] read?
Answer: modest brain penetrance

Question: And the half-life in plasma [1]?
Answer: > five

Question: What about the half-life ([1]; CDI, mouse, plasma) of the same compound?
Answer: > 300 min

Question: And the HMGB1 secretion [2]?
Answer: reproducibly induced HMGB1 secretion

Question: And the pIC50 [3]?
Answer: 5.52 to 5.82
